Assay results taken from patent publication US20260138980A1, “SPIRO COMPOUNDS AND USES THEREOF IN THE FIELD OF MEDICINE” (Kind Pharmaceutical, priority 2023, published 2026).

Tested on: EPO
Assay: Determination of EPO inhibition rate by compounds using Hep3B cells (EPO ELISA of culture supernatant)
Format: cell-based
Details: Homo sapiens, EPO induced with 30 μM (6′-hydroxy-3′-(4-methoxyphenyl)-8′-oxo-8′H-spiro[cyclopentane-1,5′-indolizine]-7′-carbonyl)glycine or its analogues, test compound 48 hours
Method: Hep3B cells (from the Cell Bank of the Chinese Academy of Sciences, TCHu106) were seeded in a plate at a density of 5×10^4/mL and incubated overnight at 37° C. in a 5% CO2 incubator (Thermo Scientific BB150). The next day, the culture medium was replaced with medium containing 0.5% FBS (VivaCell C04001-500) to starve the cells for 6 hours. Subsequently, a DMSO solution of (6′-hydroxy-3′-(4-methoxyphenyl)-8′-oxo-8′H-spiro[cyclopentane-1,5′-indolizine]-7′-carbonyl)glycine or its analogues was added to achieve a final concentration of 30 μM. The plate was returned to the 37° C., 5% CO2 incubator for an additional 24 hours. Then, a DMSO solution of the test compound was added to achieve final concentrations of 30000 nM, 7500 nM, 1875 nM, 469 nM, 117 nM, 29 nM, 7.3 nM, 1.8 nM, 0.5 nM, and 0 nM (ten concentrations in total). Treatment continued for 48 hours. Cell culture supernatants were collected for EPO ELISA detection. The assay was performed according to the instructions of the ELISA kit (Sangon Biotech (Shanghai) Co., Ltd., D711311-0096). Absorbance was read at a wavelength of 450 nm using a microplate reader (Thermo Scientific Multiskan Go, 511191200).
The compound inhibition rate was calculated using the formula: Inhibition Rate=1-100%*(EPO value of the treated well−EPO value of the blank well)/(EPO value of the Control well−EPO value of the blank well). The IC50 value was calculated by linear fitting of the inhibition rates. Herein, the Control well refers to the cell-containing well treated for 72 hours with a DMSO solution containing 0 nM of the test compound but containing 30 μM of (6′-hydroxy-3′-(4-methoxyphenyl)-8′-oxo-8′H-spiro[cyclopentane-1,5′-indolizine]-7′-carbonyl)glycine or its analogues. The EPO level in this well was set as 100%. The blank well refers to a cell-containing well without the addition of any compound.

| SMILES | IC50 [nM] |
| --- | --- |
| FC1=CCC2(CN3C=C(C(F)(F)F)C=C(OC(F)F)C3=N2)c2ccnc(Cl)c21 (racemic) [Example 1, 1′-Chloro-8-difluoromethoxy-8′-fluoro-6-trifluoromethyl-3H,6′H-spiro[imidazo[1,2-a]pyridine-2,5′-isoquinoline]] | 29 |
| FC(F)OC1=CC(C(F)(F)F)=CN2CC3(CC=Cc4c3ccnc4Cl)N=C12 (racemic) [Example 2, 1′-Chloro-8-difluoromethoxy-6-trifluoromethyl-3H,6′H-spiro[imidazo[1,2-a]pyridine-2,5′-isoquinoline]] | 35.8 |
| FC1=Cc2c(ccnc2Cl)C2(C1)CN1C=C(C(F)(F)F)C=C(OC(F)F)C1=N2 (racemic) [Example 10, 1′-Chloro-8-difluoromethoxy-7′-fluoro-6-trifluoromethyl-3H,6′H-spiro[imidazo[1,2-a]pyridine-2,5′-isoquinoline]] | 26.8 |
| FC1=CC[C@]2(CN3C=C(C(F)(F)F)C=C(OC(F)F)C3=N2)c2ccnc(Cl)c21 (single isomer, unassigned) [Example 1-B] | 563 |
| FC(F)OC1=CC(C(F)(F)F)=CN2C[C@]3(CC=Cc4c3ccnc4Cl)N=C12 (single isomer, unassigned) [Example 2-A] | 365 |
| FC(F)OC1=CC(C(F)(F)F)=CN2C[C@@]3(CC=Cc4c3ccnc4Cl)N=C12 (single isomer, unassigned) [Example 2-B] | 18.7 |
| FC1=Cc2c(ccnc2Cl)[C@]2(C1)CN1C=C(C(F)(F)F)C=C(OC(F)F)C1=N2 (single isomer, unassigned) [Example 10-A] | 2150 |
| FC1=Cc2c(ccnc2Cl)[C@@]2(C1)CN1C=C(C(F)(F)F)C=C(OC(F)F)C1=N2 (single isomer, unassigned) [Example 10-B] | 26.9 |
| FC1=CC[C@]2(CN3C=C(C(F)(F)F)C=C(OC(F)F)C3=N2)c2cccc(F)c21 (single isomer, unassigned) [Example 15-B] | 109 |
| Fc1cccc2c1C=CC[C@]21CN2C=C(C(F)(F)F)C=C(OC(F)F)C2=N1 (single isomer, unassigned) [Example 16-B] | 20.4 |
| CC1=CCC2(CN3C=C(C(F)(F)F)C=C(OC(F)F)C3=N2)c2ccnc(Cl)c21 (stereo not shown) [Example 6, 1′-Chloro-8-difluoromethoxy-8′-methyl-6-trifluoromethyl-3H,6′H-spiro[imidazo[1,2-a]pyridine-2,5′-isoquinoline]] | 181 |
| FC(F)OC1=CC(C(F)(F)F)=CN2CC3(CC=C(Cl)c4c3ccnc4Cl)N=C12 (stereo not shown) [Example 7, 1′,8′-Dichloro-8-difluoromethoxy-6-trifluoromethyl-3H,6′H-spiro[imidazo[1,2-a]pyridine-2,5′-isoquinoline]] | 24.4 |
| FC(F)OC1=CC(C(F)(F)F)=CN2CC3(CC=C(C(F)(F)F)c4c3ccnc4Cl)N=C12 (stereo not shown) [Example 8, 1′-Chloro-8-difluoromethoxy-6,8′-bis(trifluoromethyl)-3H,6′H-spiro[imidazo[1,2-a]pyridine-2,5′-isoquinoline]] | 148 |
| FC(F)OC1=CC(C(F)(F)F)=CN2CC3(CC(Cl)=Cc4c3ccnc4Cl)N=C12 (stereo not shown) [Example 9, 1′,7′-Dichloro-8-difluoromethoxy-6-trifluoromethyl-3H,6′H-spiro[imidazo[1,2-a]pyridine-2,5′-isoquinoline]] | 47.9 |
| Fc1c(Br)ccc2c1C(I)=CCC21CN2C=C(C(F)(F)F)C=C(OC(F)F)C2=N1 (stereo not shown) [Example 13, 6′-Bromo-8-difluoromethoxy-5′-fluoro-4′-iodo-6-trifluoromethyl-2′H,3H-spiro[imidazo[1,2-a]pyridine-2,1′-naphthalene]] | 116 |
| Cc1nccc2c1C=CCC21CN2C=C(C(F)(F)F)C=C(OC(F)F)C2=N1 (stereo not shown) [Example 17, 8-Difluoromethoxy-1′-methyl-6-trifluoromethyl-3H,6′H-spiro[imidazo[1,2-a]pyridine-2,5′-isoquinoline]] | 705 |
| Fc1cccc2c1C(I)=CCC21CN2C=C(C(F)(F)F)C=C(OC(F)F)C2=N1 (stereo not shown) [Example 19, 8-Difluoromethoxy-5′-fluoro-4′-iodo-6-trifluoromethyl-2′H,3H-spiro[imidazo[1,2-a]pyridine-2,1′-naphthalene]] | 302 |
| FC(F)OC1=CC(C(F)(F)F)=CN2CC3(CC=Cc4cnccc43)N=C12 (stereo not shown) [Example 20, 8-Difluoromethoxy-6-trifluoromethyl-3H,6′H-spiro[imidazo[1,2-a]pyridine-2,5′-isoquinoline]] | 813 |
| O=[N+]([O-])c1c(Nc2cc(F)cc(Cl)c2)ccc2nonc12 [positive control compound, reference compound] | 497 |

These reach a lower IC50. Values come first.

| IC50 [nM] | SMILES |
| --- | --- |
| 3.04 | FC1=CCC2(CN3C=C(C(F)(F)F)C=C(OC(F)F)C3=N2)c2cccc(F)c21 (racemic) [Example 15, 8-(Difluoromethoxy)-4′,5′-difluoro-6-(trifluoromethyl)-2′H,3H-spiro[imidazo[1,2-a]pyridine-2,1′-naphthalene]] |
| 7.01 | Fc1cccc2c1C=CCC21CN2C=C(C(F)(F)F)C=C(OC(F)F)C2=N1 (racemic) [Example 16, 8-(Difluoromethoxy)-5′-fluoro-6-trifluoromethyl-2′H,3H-spiro[imidazo[1,2-a]pyridine-2,1′-naphthalene]] |
| 17.9 | FC1=CC[C@@]2(CN3C=C(C(F)(F)F)C=C(OC(F)F)C3=N2)c2ccnc(Cl)c21 (single isomer, unassigned) [Example 1-A] |
| 2.12 | FC1=CC[C@@]2(CN3C=C(C(F)(F)F)C=C(OC(F)F)C3=N2)c2cccc(F)c21 (single isomer, unassigned) [Example 15-A] |
| 6.45 | Fc1cccc2c1C=CC[C@@]21CN2C=C(C(F)(F)F)C=C(OC(F)F)C2=N1 (single isomer, unassigned) [Example 16-A] |
| 12.2 | FC1=CCC2(CN3C=C(C(F)(F)F)C=C(OC(F)F)C3=N2)c2ccc(Br)c(F)c21 (stereo not shown) [Example 11, 6′-Bromo-8-difluoromethoxy-4′,5′-difluoro-6-trifluoromethyl-2′H,3H-spiro[imidazo[1,2-a]pyridine-2,1′-naphthalene]] |
| 1.08 | Fc1c(Br)ccc2c1C=CCC21CN2C=C(C(F)(F)F)C=C(OC(F)F)C2=N1 (stereo not shown) [Example 12, 6′-Bromo-8-(difluoromethoxy)-5′-fluoro-6-(trifluoromethyl)-2′H,3H-spiro[imidazo[1,2-a]pyridine-2,1′-naphthalene]] |
| 4.12 | Fc1c(Br)ccc2c1C(Cl)=CCC21CN2C=C(C(F)(F)F)C=C(OC(F)F)C2=N1 (stereo not shown) [Example 14, 6′-Bromo-4′-chloro-8-difluoromethoxy-5′-fluoro-6-trifluoromethyl-2′H,3H-spiro[imidazo[1,2-a]pyridine-2,1′-naphthalene]] |
| 3.48 | Cc1ccc2c(c1F)C=CCC21CN2C=C(C(F)(F)F)C=C(OC(F)F)C2=N1 (stereo not shown) [Example 18, 8-Difluoromethoxy-5′-fluoro-6′-methyl-6-trifluoromethyl-2′H,3H-spiro[imidazo[1,2-a]pyridine-2,1′-naphthalene]] |
